Counter-ions that a name gives are not always drawn. Like-named read-outs stand apart in the source and are kept apart here.
Legend:
[1] = test system: human ovarian carcinoma xenografts; conditions: mice bearing human ovarian carcinoma xenografts; cited from earlier work
[2] = biological target: GCD (recombinant gelatinase A catalytic domain); assay: Inhibition of recombinant gelatinase A catalytic domain (GCD), thiopeptolide substrate Ac-Pro-Leu-Gly-thioester-Leu-Leu-Gly-OEt; type: biochemical
Description: Experiments were carried out with the catalytic domains of the proteinases.

[3] = test system: pig articular cartilage; conditions: cited from earlier work
[4] = test system: bovine nasal cartilage; conditions: cited from earlier work
[5] = biological target: SCD (stromelysin-1 catalytic domain) (Homo sapiens, UniProt P08254); assay: Inhibition of stromelysin-1 catalytic domain (SCD), thiopeptolide substrate Ac-Pro-Leu-Gly-thioester-Leu-Leu-Gly-OEt; type: biochemical
Description: Experiments were carried out with the catalytic domains of the proteinases. […] IC50 values were determined using a thiopeptolide substrate, Ac-Pro-Leu-Gly-thioester-Leu-Leu-Gly-OEt (Ye Q.-Z., Johnson L. L., Hupe D. J., and Baragi V., "Purification and Characterization of the Human Stromelysin Catalytic Domain Expressed in Escherichia coli", Biochemistry, 1992;31:11231-11235).

[6] = test system: experimental allergic encephalomyelitis (EAE); conditions: dose dependent; cited from earlier work

SCD (stromelysin-1 catalytic domain), sequence (P08254 100-272 limits assumed): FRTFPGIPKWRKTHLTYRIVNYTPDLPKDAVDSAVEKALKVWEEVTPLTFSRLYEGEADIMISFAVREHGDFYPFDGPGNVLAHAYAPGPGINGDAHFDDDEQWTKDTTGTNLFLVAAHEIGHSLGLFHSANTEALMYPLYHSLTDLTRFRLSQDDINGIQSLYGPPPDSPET

Molecule	IC50 [2]	IC50 [5]	further results
CNC(=O)[C@H](Cc1ccccc1)NC(=O)[C@H](CC(C)C)[C@H](CSc1cccs1)C(=O)NO [BB-94]	–	–	survival [1]: prolonged the survival; tumor burden [1]: decreased the tumor burden
O=C(O)CCC(=O)c1ccc(N2CCC(c3ccccc3)CC2)cc1 [Example 1, 4-Oxo-4-[4-(4-phenyl-piperidin-1-yl)-phenyl]-butyric acid]	1300 nM	–	–
TIMP-1: natural endogenous inhibitors of MMPs (TIMPs)	–	–	formation of collagen fragments [3]: prevented the formation of collagen fragments; formation of proteoglycan fragments [3]: not proteoglycan fragments; formation of collagen fragments [4]: prevented the formation of collagen fragments; formation of proteoglycan fragments [4]: not proteoglycan fragments
O=C(O)CCC(=NOCc1ccccc1)c1ccc(N2CCC(c3ccccc3)CC2)cc1 [Example 5, E/Z-4-Benzyloxyimino-4-[4-(4-phenyl-piperidin-1-yl)-phenyl]-butyric acid]	6300 nM	2900 nM	–
CNC(=O)[C@H](Cc1c[nH]c2ccccc12)NC(=O)[C@@H](CC(=O)NO)CC(C)C [GM6001]	–	–	development or clinical expression of EAE [6]: suppressed the development or reversed the clinical expression
O=C(O)CCC(=NO)c1ccc(N2CCC(c3ccccc3)CC2)cc1 [Example 4, E/Z-4-Hydroxyimino-4-[4-(4-phenyl-piperidin-1-yl)-phenyl]-butyric acid]	150 nM	20 nM	–
CC(CC(=O)O)CC(=O)c1ccc(N2CCC(c3ccccc3)CC2)cc1 (racemic) [Example 7, (±)3-Methyl-5-oxo-5-[4-(4-phenyl-piperidin-1-yl)-phenyl]-pentanoic acid]	14000 nM	400 nM	–
O=C(O)CCC(=O)c1ccc(N2CCN(c3ccccc3)CC2)cc1 [Example 6, 4-Oxo-4-[4-(4-phenyl-piperazin-1-yl)-phenyl]-butyric acid]	1600 nM	–	–
O=C(CCC(=O)c1ccc(N2CCC(c3ccccc3)CC2)cc1)NO [Example 3, N-Hydroxy-4-oxo-4-[4-(4-phenyl-piperidin-1-yl)-phenyl]-butyramide]	40 nM	–	–
O=C(O)CCC(=O)c1ccc(N2CCC(c3ccccc3)CC2)cc1 [potassium salt]	–	80 nM	IC50 ([2]; potassium salt): 560 nM
